Measurements reported in US20100233532A1, “Composition for battery” (TOYO INK MFG. CO., LTD., priority 2007, published 2010).

Experiment: Solubility of dispersants in purified water
Type: physicochemical
Method: Evaluations of solubility were carried out by evaluating dispersants having solubility in purified water of 0.02% or more as “O” (soluble) and those having solubility of less than 0.02% as “x” (insoluble).

Compound | Solubility in water
O=P(O)(O)c1ccc(Nc2nc(Nc3ccc4ccccc4c3)nc(Nc3ccc4ccccc4c3)n2)cc1 [Dispersant F] | Salt forming substance: None Solubility in water: ∘
Cc1ccc(Nc2nc(Nc3ccccc3)nc(Nc3ccc4[nH]c(=O)[nH]c4c3)n2)cc1S(=O)(=O)O [Dispersant A] | Salt forming substance: None Solubility in water: ∘
O=C(O)c1cc2ccccc2c(N=Nc2ccc([N+](=O)[O-])cc2)c1O [Dispersant O] | Salt forming substance: None Solubility in water: ∘
CC1(C)CC(Nc2nc(Nc3ccc(P(=O)(O)O)cc3)nc(Nc3ccc4[nH]c(=O)[nH]c4c3)n2)CC(C)(CNc2nc(Nc3ccc(P(=O)(O)O)cc3)nc(Nc3ccc4[nH]c(=O)[nH]c4c3)n2)C1 (stereo not shown) [Dispersant G] | Solubility in water: x (solubility of less than 0.02% as “x” (insoluble))
O=C1Cc2ccc(Nc3nc(Nc4ccc(C(=O)O)cc4)nc(Nc4ccc5[nH]c(=O)[nH]c5c4)n3)cc2C1 [Dispersant I] | Solubility in water: x (solubility of less than 0.02% as “x” (insoluble))
Cc1ccc2cccc(Nc3nc(Nc4ccc(C(=O)O)cc4)nc(Nc4ccc(C(=O)O)cc4)n3)c2n1 [Dispersant J] | Solubility in water: x (solubility of less than 0.02% as “x” (insoluble))
CCn1c2ccccc2c2cc(Nc3nc(O)nc(Nc4ccc(O)c(C(=O)O)c4)n3)ccc21 [Dispersant H] | Salt forming substance: None Solubility in water: ∘
